In ChEMBL document CHEMBL5584347, “Development of Nitric Oxide Releasing Oxoisoaporphines with Antidepressant Activities by Simultaneously Regulating MAO-A and SERT” (J Med Chem, 2024):
Active and inactive are the calls of the source. No cut-off for these calls is given here.

How the values were obtained:
[1] = Cytotoxicity against human L02 cells incubated for 24 hrs by MTT assay; type: toxicity, cell-based
[2] = Cytotoxicity against human SH-SY5Y cells incubated for 24 hrs by MTT assay; type: toxicity, cell-based
[3] = Cytotoxicity against rat PC-12 cells incubated for 24 hrs by MTT assay; type: toxicity, cell-based
PC-12 = experiment: Neuroprotective activity against corticosterone-induced cell injury in rat PC-12 cells assessed as increase in cell viability at 0.1 to 1 uM incubated for 24 hrs by CCK8 assay; type: functional, cell-based; settings: dose 0.1-1 µM
Danio rerio [4] = experiment: Antidepressant activity in reserpine-induced depressive zebrafish model assessed as increase in total distance traveled at 1 uM preadministered with reserpine for 40 mins followed by compound administration and measured after 7 days by open field test; type: functional, organism-based; settings: time 7.0 day
Danio rerio [5] = experiment: Antidepressant activity in reserpine-induced depressive zebrafish model assessed as increase in speed of movement at 1 uM preadministered with reserpine for 40 mins followed by compound administration and measured after 7 days by open field test; type: functional, organism-based; settings: time 7.0 day
Danio rerio [6] = experiment: Antidepressant activity in reserpine-induced depressive zebrafish model assessed as reduction in immobility time at 1 uM preadministered with reserpine for 40 mins followed by compound administration and measured after 7 days by open field test; type: functional, organism-based; settings: time 7.0 day
Danio rerio [7] = experiment: Antidepressant activity in reserpine-induced depressive zebrafish model assessed as increase in total distance traveled at 1 uM preadministered with reserpine for 40 mins followed by compound administration and measured after 7 days by novel tank test; type: functional, organism-based; settings: time 7.0 day
Danio rerio [8] = experiment: Antidepressant activity in reserpine-induced depressive zebrafish model assessed as increase in speed of movement at 1 uM preadministered with reserpine for 40 mins followed by compound administration and measured after 7 days by novel tank test; type: functional, organism-based; settings: time 7.0 day
Danio rerio [9] = experiment: Antidepressant activity in reserpine-induced depressive zebrafish model assessed as increase in time spend in upper part at 1 uM preadministered with reserpine for 40 mins followed by compound administration and measured after 7 days by novel tank test; type: functional, organism-based; settings: time 7.0 day
Mus musculus [10] = experiment: Antidepressant activity in chronic unpredictable mild stress induced depressive C57 mouse model assessed as increase in total distance traveled at 10 mg/kg administered continuously for 2 weeks post 5 weeks of chronic unpredictable mild stress by open field test; type: functional, organism-based
Mus musculus [11] = experiment: Antidepressant activity in chronic unpredictable mild stress induced depressive C57 mouse model assessed as increase in movement at 10 mg/kg administered continuously for 2 weeks post 5 weeks of chronic unpredictable mild stress by open field test; type: functional, organism-based
Mus musculus [12] = experiment: Antidepressant activity in reserpine induced depressive mouse model assessed as 5-HT level in brain at 10 mg/kg preadministered with reserpine for 3 days followed by compound addition from day 4 to 10 by LC-MS analysis (reference value: 186.46 ng/ml); type: functional; settings: time 7 day
Mus musculus [13] = experiment: Upregulation of 5-HT level in mouse at 10 mg/kg in presence of isosorbide mononitrate; type: functional, organism-based
Mus musculus [14] = experiment: Upregulation of 5-HT level in mouse at 10 mg/kg in presence of oxoisoaporphines; type: functional, organism-based

O=C1c2ccccc2-c2nccc3cc(OCCCCCOc4no[n+]([O-])c4S(=O)(=O)c4ccccc4)cc1c23
IC50 at 24 h [1]: > 100 µM
IC50 at 24 h [2]: > 100 µM
IC50 at 24 h [3]: > 10 µM
Activity (PC-12): inactive

O=C1c2ccccc2-c2nccc3cc(OCCCCO[N+](=O)[O-])cc1c23
IC50 at 24 h [1]: > 100 µM
IC50 at 24 h [2]: > 100 µM
IC50 at 24 h [3]: > 10 µM
Activity (PC-12): Active

O=C1c2ccccc2-c2nccc3cc(OCCCCCO[N+](=O)[O-])cc1c23
IC50 at 24 h [1]: > 100 µM
IC50 at 24 h [2]: > 100 µM
IC50 at 24 h [3]: > 10 µM
Activity (PC-12): Active

O=C1c2ccccc2-c2nccc3cc(OCCOc4no[n+]([O-])c4S(=O)(=O)c4ccccc4)cc1c23
IC50 at 24 h [1]: > 100 µM
IC50 at 24 h [2]: > 100 µM
IC50 at 24 h [3]: > 10 µM
Activity (PC-12): inactive

CNCCC(Oc1ccc(C(F)(F)F)cc1)c1ccccc1 (configuration not stated) [FLUOXETINE]
Activity (Danio rerio [4]): Active
Activity (Danio rerio [5]): Active
Activity (Danio rerio [6]): Active
Activity (Danio rerio [7]): Active
Activity (Danio rerio [8]): Active
Activity (Danio rerio [9]): Active
Activity (Mus musculus [10]): Active
Activity (Mus musculus [11]): Active
Activity (Mus musculus [12]): 223.45 ng/mL

O=C1c2ccccc2-c2nccc3cc(OCCCCCCO[N+](=O)[O-])cc1c23
IC50 at 24 h [1]: > 100 µM
IC50 at 24 h [2]: > 100 µM
IC50 at 24 h [3]: > 10 µM
Activity (PC-12): Active

O=C1c2ccccc2-c2nccc3cc(OCCO[N+](=O)[O-])cc1c23
IC50 at 24 h [1]: > 100 µM
IC50 at 24 h [2]: > 100 µM
IC50 at 24 h [3]: > 10 µM
Activity (PC-12): Active

O=C1c2ccccc2-c2nccc3cc(OCCCCOc4no[n+]([O-])c4S(=O)(=O)c4ccccc4)cc1c23
IC50 at 24 h [1]: > 100 µM
IC50 at 24 h [2]: > 100 µM
IC50 at 24 h [3]: > 10 µM
Activity (PC-12): inactive

O=C1c2ccccc2-c2nccc3cccc1c23
Activity (Mus musculus [13]): Active

O=C1c2ccccc2-c2nccc3cc(OCCCOc4no[n+]([O-])c4S(=O)(=O)c4ccccc4)cc1c23
IC50 at 24 h [1]: > 100 µM
IC50 at 24 h [2]: > 100 µM
IC50 at 24 h [3]: > 10 µM
Activity (PC-12): inactive

O=C1c2ccccc2-c2nccc3cc(OCCCCCCOc4no[n+]([O-])c4S(=O)(=O)c4ccccc4)cc1c23
IC50 at 24 h [1]: > 100 µM
IC50 at 24 h [2]: > 100 µM
IC50 at 24 h [3]: > 10 µM
Activity (PC-12): inactive

O=[N+]([O-])O[C@@H]1CO[C@H]2[C@@H]1OC[C@@H]2O
Activity (Mus musculus [14]): Active
